Data set [1] has as its target T1, human serum albumin (HSA) (Homo sapiens, UniProt P02768).
T1 construct: gene ALB
Briefly: fluorescence quenching/enhancement and anisotropy titrations; also equilibrium dialysis, HSA affinity chromatography, CD. It is filed as binding. Conditions: read-out: logK (Hyperquad, Figure 3) (converted).

For data set [2], the target named is T1, human serum albumin (HSA). Briefly: equilibrium dialysis; also fluorescence titrations and anisotropy, HSA affinity chromatography, CD. It is filed as binding. Conditions: read-out: % bound.

Where only a bound is given, the exact number is not on record here.

T1 sequence (P02768 25-609): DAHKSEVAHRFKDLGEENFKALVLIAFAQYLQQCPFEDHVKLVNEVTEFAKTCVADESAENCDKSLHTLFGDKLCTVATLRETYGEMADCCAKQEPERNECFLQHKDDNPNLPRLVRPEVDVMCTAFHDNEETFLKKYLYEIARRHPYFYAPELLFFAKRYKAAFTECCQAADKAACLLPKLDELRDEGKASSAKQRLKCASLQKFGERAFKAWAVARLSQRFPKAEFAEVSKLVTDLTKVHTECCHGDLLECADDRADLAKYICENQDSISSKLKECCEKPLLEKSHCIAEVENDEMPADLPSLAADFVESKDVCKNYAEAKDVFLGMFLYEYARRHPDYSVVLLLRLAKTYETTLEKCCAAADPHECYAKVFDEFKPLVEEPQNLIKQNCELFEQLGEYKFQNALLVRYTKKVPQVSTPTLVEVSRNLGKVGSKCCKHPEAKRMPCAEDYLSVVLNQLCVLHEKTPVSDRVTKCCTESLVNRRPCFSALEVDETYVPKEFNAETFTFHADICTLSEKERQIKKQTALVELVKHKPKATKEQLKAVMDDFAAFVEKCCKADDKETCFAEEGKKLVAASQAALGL

Regarding `C[C@@H]1Cc2c(Cl)cc(C(=O)N[C@H](Cc3ccccc3)C(=O)O)c(O)c2C(=O)O1` [2′R-OTA, 2′R-Ochratoxin A], in data set [1], the Kd was 589 nM.
Regarding `C[C@@H]1Cc2c(Cl)cc(C(=O)N[C@@H](Cc3ccccc3)C(=O)O)c(O)c2C(=O)O1` [OTA, Ochratoxin A], in data set [2], the fraction unbound is below 0.004.

(Values after article PMC6070976, “Interaction of Ochratoxin A and Its Thermal Degradation Product 2′R-Ochratoxin A with Human Serum Albumin” (Toxins, 2018).)
